Experimental data from patent publication US20020133009A1, “Method for opening potassium channels” (priority 2001, published 2002).

Key:
maxi-K+ channels [1] = target: T1, maxi-K+ channels (Bos taurus, UniProt Q28204); assay: Patch clamp whole-cell current measurements in cultured bovine trabecular meshwork (TM) cells; type: cell-based
T1 construct: endogenous in cells; host or cells: cultured bovine trabecular meshwork (TM) cells
Description: (§1) Patch clamp experiments of cultured human and bovine trabecular meshwork (TM) cells are performed. Nystatin in a pipette is used to obtain perforated patches. Whole-cell current measurements in the cells are performed. Voltages from −80mV to +120mV with 200-msec duration each are applied through the patch pipette, starting from a holding potential of −40mV. After each step, the voltage is returned to a holding potential of […] for 200-msec. Currents are continuously sampled at 100 Hz throughout the duration of the protocol.

maxi-K+ channels [2] = target: T2, maxi-K+ channels (Homo sapiens, UniProt Q12791); assay: Patch clamp whole-cell current measurements in cultured human trabecular meshwork (TM) cells; type: cell-based
T2 construct: endogenous in cells; host or cells: cultured human trabecular meshwork (TM) cells
Description: as §1

T1 sequence (Q28204 whole entry): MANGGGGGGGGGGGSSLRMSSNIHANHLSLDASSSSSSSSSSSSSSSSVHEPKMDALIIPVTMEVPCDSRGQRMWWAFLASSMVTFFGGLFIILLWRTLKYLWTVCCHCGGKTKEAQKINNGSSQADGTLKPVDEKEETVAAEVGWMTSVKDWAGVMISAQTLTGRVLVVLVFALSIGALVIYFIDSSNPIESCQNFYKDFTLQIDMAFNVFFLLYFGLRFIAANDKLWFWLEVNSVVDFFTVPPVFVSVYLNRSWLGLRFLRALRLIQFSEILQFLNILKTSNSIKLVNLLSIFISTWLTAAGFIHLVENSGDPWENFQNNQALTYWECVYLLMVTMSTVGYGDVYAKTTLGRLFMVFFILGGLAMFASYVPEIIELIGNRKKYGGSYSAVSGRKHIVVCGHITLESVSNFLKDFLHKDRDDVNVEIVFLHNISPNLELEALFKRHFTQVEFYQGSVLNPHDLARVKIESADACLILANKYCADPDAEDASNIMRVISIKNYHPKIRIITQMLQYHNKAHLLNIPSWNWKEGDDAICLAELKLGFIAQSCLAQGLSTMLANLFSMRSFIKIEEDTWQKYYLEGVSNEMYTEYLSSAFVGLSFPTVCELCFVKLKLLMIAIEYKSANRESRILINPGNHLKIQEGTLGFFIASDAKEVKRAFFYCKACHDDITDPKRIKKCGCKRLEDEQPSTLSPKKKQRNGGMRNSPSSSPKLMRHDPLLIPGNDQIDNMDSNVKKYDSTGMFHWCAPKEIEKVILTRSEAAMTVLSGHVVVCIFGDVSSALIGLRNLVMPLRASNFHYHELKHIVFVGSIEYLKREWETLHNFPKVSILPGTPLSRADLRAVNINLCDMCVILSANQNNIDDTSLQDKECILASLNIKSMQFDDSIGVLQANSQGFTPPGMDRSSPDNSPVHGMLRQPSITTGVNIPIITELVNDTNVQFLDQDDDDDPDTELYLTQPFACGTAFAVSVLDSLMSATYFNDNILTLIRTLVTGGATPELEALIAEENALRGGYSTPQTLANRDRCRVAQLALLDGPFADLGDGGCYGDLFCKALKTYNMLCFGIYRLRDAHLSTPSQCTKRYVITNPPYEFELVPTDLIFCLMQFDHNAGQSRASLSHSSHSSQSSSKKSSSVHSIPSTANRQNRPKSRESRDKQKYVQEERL
T2 sequence (Q12791 whole entry): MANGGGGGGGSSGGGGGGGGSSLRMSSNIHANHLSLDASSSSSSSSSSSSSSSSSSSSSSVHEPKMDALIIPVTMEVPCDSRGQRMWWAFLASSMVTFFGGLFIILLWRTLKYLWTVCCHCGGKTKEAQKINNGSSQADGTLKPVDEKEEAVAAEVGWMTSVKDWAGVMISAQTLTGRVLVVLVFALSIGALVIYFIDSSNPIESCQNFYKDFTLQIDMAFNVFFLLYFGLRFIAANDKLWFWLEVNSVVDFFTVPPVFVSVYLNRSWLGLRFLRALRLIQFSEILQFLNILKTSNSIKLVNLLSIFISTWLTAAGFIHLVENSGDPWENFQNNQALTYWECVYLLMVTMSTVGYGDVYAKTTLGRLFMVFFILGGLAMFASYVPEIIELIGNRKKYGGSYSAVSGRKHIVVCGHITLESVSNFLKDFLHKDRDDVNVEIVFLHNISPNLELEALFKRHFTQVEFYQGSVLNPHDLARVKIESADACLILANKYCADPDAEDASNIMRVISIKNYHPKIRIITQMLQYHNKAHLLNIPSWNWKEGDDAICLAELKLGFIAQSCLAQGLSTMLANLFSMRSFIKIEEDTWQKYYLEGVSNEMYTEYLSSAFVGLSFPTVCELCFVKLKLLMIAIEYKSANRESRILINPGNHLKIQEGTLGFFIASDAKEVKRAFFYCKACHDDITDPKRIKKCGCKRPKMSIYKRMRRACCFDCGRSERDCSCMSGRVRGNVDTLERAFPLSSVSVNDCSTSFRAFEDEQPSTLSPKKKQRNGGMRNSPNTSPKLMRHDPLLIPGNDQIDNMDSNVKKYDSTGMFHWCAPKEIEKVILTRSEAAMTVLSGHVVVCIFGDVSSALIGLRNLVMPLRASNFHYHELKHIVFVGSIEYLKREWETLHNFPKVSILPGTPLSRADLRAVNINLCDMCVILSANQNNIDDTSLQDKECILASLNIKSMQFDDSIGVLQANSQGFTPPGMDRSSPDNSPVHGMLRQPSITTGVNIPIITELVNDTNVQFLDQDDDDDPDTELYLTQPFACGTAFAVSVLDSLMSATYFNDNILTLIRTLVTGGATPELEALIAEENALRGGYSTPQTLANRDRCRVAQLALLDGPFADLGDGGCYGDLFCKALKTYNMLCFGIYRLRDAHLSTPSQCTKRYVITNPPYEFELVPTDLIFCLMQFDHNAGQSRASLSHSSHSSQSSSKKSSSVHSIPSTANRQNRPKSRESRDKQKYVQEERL

Molecule	effect on unoprostone isopropyl-induced current (maxi-K+ channels [1]; TM cells, species not given)	total current inhibited by iberiotoxin, % of the control (maxi-K+ channels [1]; bovine trabecular meshwork cells incubated in acetylcholine, after unoprostone isopropyl stimulation)	overall current of the cells (maxi-K+ channels [1]; bovine TM cells incubated in either acetylcholine or endothelin)	total current, % of the control (maxi-K+ channels [1]; bovine trabecular meshwork cells incubated in acetylcholine, 10^-5 M unoprostone isopropyl, p<0.01)	maxi-K+ channel opening (maxi-K+ channels [1]; conclusion from iberiotoxin block, TM cells, species not given)	overall current of the cells (maxi-K+ channels [2]; human TM cells incubated in either acetylcholine or endothelin)	overall current (maxi-K+ channels [2]; human trabecular meshwork cells incubated in acetylcholine)	overall current (maxi-K+ channels [2]; human trabecular meshwork cells incubated in the presence of endothelin)
iberiotoxin: highly specific inhibitor of maxi-K+ channels (QFTDVDCSVSKECWSVCKDLFGVDRGKCMGKKCRCYQ; UniProt P24663 1-37, looked up) [reference compound]	totally reduced	approximately 40%						
CCCCCCCC(=O)CC[C@@H]1[C@@H](C/C=C\CCCC(=O)OC(C)C)[C@@H](O)C[C@H]1O [unoprostone isopropyl, [1R-[1α(Z),2β,3a,5a]]-7-[3,5-dihydroxy-2-(3-oxodecyl)cyclopentyl]-5-heptenoic acid isopropyl ester]			stimulated the overall current	approximately 180%	opens maxi-K+ channels	stimulated the overall current	stimulates the overall current	induces an increase in the overall current
